# Earlier results, collected in patent EP2103943A1, “GDF-15 for assessing a cardiovascular risk with respect to the administration of antiinflammatory drugs” (F. Hoffmann-La Roche AG, priority 2008, dated 2009).
smiles,measurement,setting,value
CS(=O)(=O)c1ccc(C2=C(c3ccccc3)C(=O)OC2)cc1 [Rofecoxib],"additional cardiovascular incidents (myocardial infarction, stroke)","25 mg rofecoxib compared with a placebo, after 18 months of follow-up","16 per 1,000 treated patients"
same,blood pressure levels,"25 mg rofecoxib compared with a placebo, early post-observation phase",higher blood pressure levels
same,rise in the rate of serious thromboembolic incidents,"APPROVE study, patients without any recognisable cardiovascular risk, led to premature discontinuation",3.9 times
